Species on record: Rattus norvegicus
Experiment: DrugMatrix - Regimen: Daily Repeat
Type: toxicity, organism-based, Sprague-Dawley
Set-up: regimen Daily Repeat, gender Male, age 6-8 weeks
Details: in vivo, po, route oral GAVAGE, vehicle .5 % CMC; for ABSOLUTE BASOPHIL / ABSOLUTE EOSINOPHIL / ABSOLUTE LYMPHOCYTE / ABSOLUTE MONOCYTE / ABSOLUTE SEGMENTED NEUTROPHIL / BASOPHIL / EOSINOPHIL / ERYTHROCYTE COUNT / HEMATOCRIT / HEMOGLOBIN / LEUKOCYTE COUNT / LYMPHOCYTE / MEAN CORPUSCULAR HEMOGLOBIN / MEAN CORPUSCULAR HEMOGLOBIN CONCENTRATION / MEAN CORPUSCULAR VOLUME / MONOCYTE / NEUTROPHIL / NUCLEATED RED BLOOD CELLS / PLATELET COUNT: tissue Blood; for ALANINE AMINOTRANSFERASE / ALBUMIN / ALKALINE PHOSPHATASE / ASPARTATE AMINOTRANSFERASE / BLOOD UREA NITROGEN / CARBON DIOXIDE / CHLORIDE / CHOLESTEROL / CREATINE PHOSPHOKINASE / CREATININE / GLUCOSE / LACTATE DEHYDROGENASE / LIPASE / PHOSPHORUS / POTASSIUM / SODIUM / TOTAL BILIRUBIN / TOTAL PROTEIN / URIC ACID: tissue Plasma
[1] = 50 mg/kg, 120 h, dose level Low, time 5 day
[2] = 500 mg/kg, 72 h, dose level High, time 3 day
[3] = 500 mg/kg, 120 h, dose level High, time 5 day

With `CC1(C)[C@H]2CC[C@]1(C)C(=O)C2` [(-)-CAMPHOR] the “ABSOLUTE BASOPHIL” value [1] was 0 CELLS/uL, the “ABSOLUTE EOSINOPHIL” value [1] was 46.67 CELLS/uL and the “ABSOLUTE LYMPHOCYTE” value [1] was 13460 CELLS/uL. The “ABSOLUTE MONOCYTE” value [1] was 0 CELLS/uL, the “ABSOLUTE SEGMENTED NEUTROPHIL” value [1] was 2360 CELLS/uL and the BASOPHIL [1] was 0%. The EOSINOPHIL [1] was 0.33%, the “ERYTHROCYTE COUNT” value [1] was 5.24 x10E6/uL and the HEMATOCRIT [1] was 32.6%. The HEMOGLOBIN [1] was 12.5 G/DL, the “LEUKOCYTE COUNT” value [1] was 15.87 x10E3/uL and the LYMPHOCYTE [1] was 86.33%. The “MEAN CORPUSCULAR HEMOGLOBIN” value [1] was 23.9 pg, the “MEAN CORPUSCULAR HEMOGLOBIN CONCENTRATION” value [1] was 38.33 G/DL and the “MEAN CORPUSCULAR VOLUME” value [1] was 62.27 fL. The MONOCYTE [1] was 0%, the NEUTROPHIL [1] was 13.33% and the “NUCLEATED RED BLOOD CELLS” value [1] was 0 /100WBC. For the same compound, the “PLATELET COUNT” value [1] was 1253.67 x10E3/uL, the “ALANINE AMINOTRANSFERASE” value [1] was 61.33 u/L and the ALBUMIN [1] was 4.37 G/DL. For the same compound, the “ALKALINE PHOSPHATASE” value [1] was 416.33 u/L, the “ASPARTATE AMINOTRANSFERASE” value [1] was 88.33 u/L and the “BLOOD UREA NITROGEN” value [1] was 18.67 mg/dL. For the same compound, the “CARBON DIOXIDE” value [1] was 22.67 mmol/L, the CHLORIDE [1] was 102.67 MEQ/L and the CHOLESTEROL [1] was 64.33 mg/dL. The “CREATINE PHOSPHOKINASE” value [1] was 328 u/L, the CREATININE [1] was 0.25 mg/dL and the GLUCOSE [1] was 194.33 mg/dL. For the same compound, the “LACTATE DEHYDROGENASE” value [1] was 167.67 u/L, the LIPASE [1] was 9 u/L and the PHOSPHORUS [1] was 12.53 mg/dL. The POTASSIUM [1] was 6.26 MEQ/L, the SODIUM [1] was 143.3 MEQ/L and the “TOTAL BILIRUBIN” value [1] was 0.17 mg/dL. For the same compound, the “TOTAL PROTEIN” value [1] was 6.13 G/DL, the “URIC ACID” value [1] was 2.63 mg/dL and the “ABSOLUTE BASOPHIL” value [2] was 0 CELLS/uL. For the same compound, the “ABSOLUTE EOSINOPHIL” value [2] was 155.67 CELLS/uL, the “ABSOLUTE LYMPHOCYTE” value [2] was 12828.67 CELLS/uL and the “ABSOLUTE MONOCYTE” value [2] was 0 CELLS/uL. The “ABSOLUTE SEGMENTED NEUTROPHIL” value [2] was 1649 CELLS/uL, the BASOPHIL [2] was 0% and the EOSINOPHIL [2] was 1%. For the same compound, the “ERYTHROCYTE COUNT” value [2] was 5.48 x10E6/uL, the HEMATOCRIT [2] was 34.93% and the HEMOGLOBIN [2] was 13.23 G/DL. For the same compound, the “LEUKOCYTE COUNT” value [2] was 14.63 x10E3/uL, the LYMPHOCYTE [2] was 88.33% and the “MEAN CORPUSCULAR HEMOGLOBIN” value [2] was 24.13 pg. The “MEAN CORPUSCULAR HEMOGLOBIN CONCENTRATION” value [2] was 37.9 G/DL, the “MEAN CORPUSCULAR VOLUME” value [2] was 63.7 fL and the MONOCYTE [2] was 0%. For the same compound, the NEUTROPHIL [2] was 10.67%, the “NUCLEATED RED BLOOD CELLS” value [2] was 0 /100WBC and the “PLATELET COUNT” value [2] was 1178.33 x10E3/uL. The “ALANINE AMINOTRANSFERASE” value [2] was 50.67 u/L, the ALBUMIN [2] was 4.3 G/DL and the “ALKALINE PHOSPHATASE” value [2] was 369.33 u/L. The “ASPARTATE AMINOTRANSFERASE” value [2] was 74.67 u/L, the “BLOOD UREA NITROGEN” value [2] was 14 mg/dL and the “CARBON DIOXIDE” value [2] was 26.67 mmol/L. The CHLORIDE [2] was 100.33 MEQ/L, the CHOLESTEROL [2] was 67.67 mg/dL and the “CREATINE PHOSPHOKINASE” value [2] was 382.33 u/L. The CREATININE [2] was 0.15 mg/dL, the GLUCOSE [2] was 154 mg/dL and the “LACTATE DEHYDROGENASE” value [2] was 99 u/L. For the same compound, the LIPASE [2] was 9 u/L, the PHOSPHORUS [2] was 12.53 mg/dL and the POTASSIUM [2] was 6.1 MEQ/L. For the same compound, the SODIUM [2] was 145.07 MEQ/L, the “TOTAL BILIRUBIN” value [2] was 0.2 mg/dL and the “TOTAL PROTEIN” value [2] was 5.93 G/DL. For the same compound, the “URIC ACID” value [2] was 1.47 mg/dL, the “ABSOLUTE BASOPHIL” value [3] was 0 CELLS/uL and the “ABSOLUTE EOSINOPHIL” value [3] was 124.33 CELLS/uL. For the same compound, the “ABSOLUTE LYMPHOCYTE” value [3] was 12652.67 CELLS/uL, the “ABSOLUTE MONOCYTE” value [3] was 0 CELLS/uL and the “ABSOLUTE SEGMENTED NEUTROPHIL” value [3] was 1356.33 CELLS/uL. For the same compound, the BASOPHIL [3] was 0%, the EOSINOPHIL [3] was 1% and the “ERYTHROCYTE COUNT” value [3] was 5.72 x10E6/uL. For the same compound, the HEMATOCRIT [3] was 37.43%, the HEMOGLOBIN [3] was 14.2 G/DL and the “LEUKOCYTE COUNT” value [3] was 14.13 x10E3/uL. The LYMPHOCYTE [3] was 89.67%, the “MEAN CORPUSCULAR HEMOGLOBIN” value [3] was 24.83 pg and the “MEAN CORPUSCULAR HEMOGLOBIN CONCENTRATION” value [3] was 37.93 G/DL. The “MEAN CORPUSCULAR VOLUME” value [3] was 65.4 fL, the MONOCYTE [3] was 0% and the NEUTROPHIL [3] was 9.33%. For the same compound, the “NUCLEATED RED BLOOD CELLS” value [3] was 0 /100WBC, the “PLATELET COUNT” value [3] was 1132 x10E3/uL and the “ALANINE AMINOTRANSFERASE” value [3] was 46.67 u/L. For the same compound, the ALBUMIN [3] was 4.47 G/DL, the “ALKALINE PHOSPHATASE” value [3] was 355.33 u/L and the “ASPARTATE AMINOTRANSFERASE” value [3] was 67.33 u/L. The “BLOOD UREA NITROGEN” value [3] was 15 mg/dL, the “CARBON DIOXIDE” value [3] was 26.67 mmol/L and the CHLORIDE [3] was 101 MEQ/L. The CHOLESTEROL [3] was 59 mg/dL, the “CREATINE PHOSPHOKINASE” value [3] was 203.33 u/L and the CREATININE [3] was 0.17 mg/dL. The GLUCOSE [3] was 169.67 mg/dL, the “LACTATE DEHYDROGENASE” value [3] was 99.33 u/L and the LIPASE [3] was 9 u/L. The PHOSPHORUS [3] was 12.5 mg/dL, the POTASSIUM [3] was 7.1 MEQ/L and the SODIUM [3] was 145.87 MEQ/L. The “TOTAL BILIRUBIN” value [3] was 0.2 mg/dL, the “TOTAL PROTEIN” value [3] was 6.37 G/DL and the “URIC ACID” value [3] was 1.77 mg/dL.

Reference: ChEMBL document CHEMBL3885881, “DrugMatrix”
